From patent publication US12648560B2, “Mosquito repellent composition and method for the preparation thereof” (priority 2019, dated 2026)

Tests used:
[1] = system: Aedes albopictus; assay: Behavioural (blood-feeding) repellency test on feeders covered with pig intestinal skin; assay type: in vivo
Description: Testing was performed as to the activity of the compositions obtained by the method according to the invention on the behaviour of the tiger mosquito, Aedes albopictus.
The behavioural tests were carried out at the Montpellier Vectopôle, which is a research centre that collaborates with the WHO for the evaluation of insecticides in public health.
The tests were carried out on mosquitoes aged 5 to 9 days old after their evolution from pupae to adult.
In preparation for the experiment, the mosquitoes were […] on the day prior thereto, in order to promote their appetite for the test to occur the subsequent day.
Each cup contains a damp cotton. The female mosquitoes were removed from the cage making use of a tube that enables aspiration thereof. They were then introduced into each experiment cup (10 mosquitoes per cup).
The tests were carried out on plexiglass racks serving as supports for glass bells known as feeders. The latter are connected to each other by plastic pipes wherein water circulates at 37° C.
Pig intestinal skin was used to mimic human skin in the experiment. The pieces of intestinal skin are positioned and stretched over the feeders.
The repellent is diluted in ethyl alcohol (aka ethanol or EtOH) and is deposited on the skin using a micropipette and then spread over the entire surface. […] If the composition tested is a mixture of at least two compounds, one of which is PMD, the said composition is diluted in ethanol at a concentration of 0.02036 mg/μL, or else is diluted in ethanol until 0.02036 mg/μL of PMD is obtained.
The feeders are turned over, then 300 μL of sheep blood are placed in each feeder. The cups are inserted under each feeder.
Polystyrene plates are inserted between the lines of repellent so as to avoid possible interactions of odours. The duration of the experiment is one hour. The cups are then placed in a freezer at −20° C. for a period of 40 minutes. After freezing, the contents of one cup are placed between two sheets of paper, with the entirety thereof then being crushed with a plexiglass plate. The counting of the blood-fed (engorged) mosquitoes is done based on the number of red dots on the sheet of paper. The results are expressed as a percentage of repellency (100%-X % of blood-feeding). The percentage of blood-feeding is defined in relation to the EtOH negative control. DEET and commercial cis/trans PMD 75/25 at 200 mg/m^2 were used as positive controls.
The results obtained were statistically analysed using R software (R Development Core Team. R: A language and environment for statistical computing. R Foundation for Statistical Computing, Vienna, Austria. ISBN 3-900051-07-0, 2013) and represent the mean of 16 replicates. The percentage repellency values are presented as the mean±standard deviation. The R software also makes it possible to compare two percentage repellency values by means of calculating the quantity p. This quantity p is a probability.

[2] = system: acetylcholinesterase; conditions: enzyme of insects as also of mammals; cited from earlier work

Structure (SMILES) | % Repellency ([1]; Table 2 series, 200 mg/m^2 in EtOH, 1 h, mean ± SD) [%] | % Repellency ([1]; Table 3 series, 200 mg/m^2 in EtOH, 1 h, mean ± SD) [%] | % Repellency ([1]; Table 4 series, PMD at 200 mg/m^2 in EtOH, mean ± SD) [%] | % Repellency ([1]; Table 5 series, PMD at 200 mg/m^2 in EtOH, mean ± SD) [%] | % Repellency ([1]; Table 6 series, PMD at 200 mg/m^2 in EtOH, mean ± SD) [%] | % Repellency ([1]; Table 7 series, PMD at 200 mg/m^2 in EtOH, mean ± SD) [%] | ED 50 expressed as concentration ([1]; concentration in EtOH tantamount to 200 mg/m^2) [mg/mL] | ED 50 (median effective dose) ([1]; repellency, dose on skin surface) [mg/m^2] | % Repellency ([1]; Table 2 series, 110 mg/m^2 in EtOH, 1 h, mean ± SD of 16 replicates) [%] | % Repellency ([1]; Table 3 series, 110 mg/m^2 in EtOH, 1 h, mean ± SD) [%] | % Repellency ([1]; Table 4 series, 110 mg/m^2 in EtOH, mean ± SD) [%] | % Repellency ([1]; Table 5 series, 110 mg/m^2 in EtOH, mean ± SD) [%] | % Repellency ([1]; Table 6 series, 110 mg/m^2 in EtOH, mean ± SD) [%] | % Repellency ([1]; Table 7 series, 110 mg/m^2 in EtOH, mean ± SD) [%] | acetylcholinesterase inhibition [2]
CC1CCC(C(C)(C)O)C(O)C1 (mixture of isomers) [Commercial cis/trans PMD 75/25, p-menthane-3,8-diol] | 51 ± 11 | 55 ± 1 | 31 ± 7 | 36 ± 1 | 48 ± 15 | 52 ± 12 | 20.36 | 200 | – | – | – | – | – | – | –
CCN(CC)C(=O)c1cccc(C)c1 [DEET, N,N diethyl-meta-toluamide] | – | – | – | – | – | – | – | – | 76 ± 9 | 56 ± 8 | 39 ± 7 | 49 ± 17 | 73 ± 2 | 43 ± 13 | inhibits
